Experimental data taken from PubChem BioAssay AID1963829 (Molecular Pharmacology Branch, DTP, NCI, 2024).

Test system: 935938-334-R-J1-PDC complex spheroid viability
Experiment: Anticancer human tumor 935938-334-R-J1-PDC patient-derived small intestine adenocarcinoma cell line growth inhibition [POLQ]
Conditions: for IC50: curve of first compound; for viability, T/C: stronger effect = lower value
Method in brief: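 Patient-derived tumour cells were co-cultured with HUVEC and mesenchymal stem cells as multicellular spheroids at 37 °C. They were treated with POLQ inhibitors (novobiocin, ART-558, RP6685) alone or combined with other agents. Top concentrations were at or near clinical Cmax (otherwise 10 microM; SN-38 at 1 microM), decreasing in half-log steps.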

[1] = second compound 0.0316 µM, first compound 0.0316 µM
[2] = second compound 0.0316 µM, first compound 0.1 µM
[3] = second compound 0.0316 µM, first compound 0.316 µM
[4] = second compound 0.0316 µM, first compound 1 µM
[5] = second compound 0.0316 µM, first compound 3.16 µM
[6] = second compound 0.0316 µM, first compound 10 µM
[7] = second compound 0.1 µM, first compound 0.0316 µM
[8] = second compound 0.1 µM, first compound 0.1 µM
[9] = second compound 0.1 µM, first compound 0.316 µM
[10] = second compound 0.1 µM, first compound 1 µM
[11] = second compound 0.1 µM, first compound 3.16 µM
[12] = second compound 0.1 µM, first compound 10 µM
[13] = second compound 0.316 µM, first compound 0.0316 µM
[14] = second compound 0.316 µM, first compound 0.1 µM
[15] = second compound 0.316 µM, first compound 0.316 µM
[16] = second compound 0.316 µM, first compound 1 µM
[17] = second compound 0.316 µM, first compound 3.16 µM
[18] = second compound 0.316 µM, first compound 10 µM
[19] = second compound 1 µM, first compound 0.0316 µM
[20] = second compound 1 µM, first compound 0.1 µM
[21] = second compound 1 µM, first compound 0.316 µM
[22] = second compound 1 µM, first compound 1 µM
[23] = second compound 1 µM, first compound 3.16 µM
[24] = second compound 1 µM, first compound 10 µM
[25] = second compound 3.16 µM, first compound 0.0316 µM
[26] = second compound 3.16 µM, first compound 0.1 µM
[27] = second compound 3.16 µM, first compound 0.316 µM
[28] = second compound 3.16 µM, first compound 1 µM
[29] = second compound 3.16 µM, first compound 3.16 µM
[30] = second compound 3.16 µM, first compound 10 µM
[31] = second compound 10 µM, first compound 0.0316 µM
[32] = second compound 10 µM, first compound 0.1 µM
[33] = second compound 10 µM, first compound 0.316 µM
[34] = second compound 10 µM, first compound 1 µM
[35] = second compound 10 µM, first compound 3.16 µM
[36] = second compound 10 µM, first compound 10 µM
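Further: spheroids exposed to drugs for seven days before viability read.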
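Wherever viability, T/C is given: 100% = DMSO vehicle control wells.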

COc1cc(C2c3cc4c(cc3C(OC3OC5COC(C)OC5C(O)C3O)C3COC(=O)C23)OCO4)cc(OC)c1O (stereo not drawn) + Cc1cccc(N(C)C(=O)C2C(O)CCN2c2nc(C)cc(C(F)(F)F)c2C#N)c1
IC50 (second compound 0.0316 µM): 0.577 µM | IC50 (second compound 0.1 µM): 0.87 µM | IC50 (second compound 0.316 µM): 0.743 µM | IC50 (second compound 1 µM): 0.471 µM | IC50 (second compound 3.16 µM): 0.397 µM | IC50 (second compound 10 µM): 0.353 µM | viability, T/C [1]: 89.9% | viability, T/C [2]: 112% | viability, T/C [3]: 65.5% | viability, T/C [4]: 41.6% | viability, T/C [5]: 33.3% | viability, T/C [6]: 32.7% | viability, T/C [7]: 104% | viability, T/C [8]: 94.6% | viability, T/C [9]: 73.7% | viability, T/C [10]: 47.3% | viability, T/C [11]: 33.5% | viability, T/C [12]: 35.9% | viability, T/C [13]: 131% | viability, T/C [14]: 114% | viability, T/C [15]: 74.1% | viability, T/C [16]: 40.6% | viability, T/C [17]: 34.2% | viability, T/C [18]: 33.8% | viability, T/C [19]: 116% | viability, T/C [20]: 78% | viability, T/C [21]: 61% | viability, T/C [22]: 35.9% | viability, T/C [23]: 30.4% | viability, T/C [24]: 30.2% | viability, T/C [25]: 84.2% | viability, T/C [26]: 93.6% | viability, T/C [27]: 54% | viability, T/C [28]: 37.4% | viability, T/C [29]: 28.7% | viability, T/C [30]: 34.7% | viability, T/C [31]: 110% | viability, T/C [32]: 73.7% | viability, T/C [33]: 56.2% | viability, T/C [34]: 33.7% | viability, T/C [35]: 31.1% | viability, T/C [36]: 33.1%

CCc1cc2c(N3CCc4c(cc(Cn5ccnc5)cc4-c4cn(C)nc4C(F)(F)F)C3=O)cc(C)nc2c(OC)n1 + COC1C(OC(N)=O)C(O)C(Oc2ccc3c(O)c(NC(=O)c4ccc(O)c(CC=C(C)C)c4)c(=O)oc3c2C)OC1(C)C
IC50 (second compound 0.0316 µM): > 10 µM | IC50 (second compound 0.1 µM): > 10 µM | IC50 (second compound 0.316 µM): > 10 µM | IC50 (second compound 1 µM): > 10 µM | IC50 (second compound 3.16 µM): > 10 µM | IC50 (second compound 10 µM): > 10 µM | viability, T/C [1]: 83.6% | viability, T/C [2]: 81.1% | viability, T/C [3]: 77.7% | viability, T/C [4]: 72.9% | viability, T/C [5]: 64.6% | viability, T/C [6]: 64.8% | viability, T/C [7]: 80.8% | viability, T/C [8]: 83.1% | viability, T/C [9]: 74.1% | viability, T/C [10]: 62.8% | viability, T/C [11]: 70.4% | viability, T/C [12]: 64% | viability, T/C [13]: 74.6% | viability, T/C [14]: 72.5% | viability, T/C [15]: 75.5% | viability, T/C [16]: 70.5% | viability, T/C [17]: 75.4% | viability, T/C [18]: 60% | viability, T/C [19]: 64.7% | viability, T/C [20]: 72% | viability, T/C [21]: 90.6% | viability, T/C [22]: 88.9% | viability, T/C [23]: 73.9% | viability, T/C [24]: 71.3% | viability, T/C [25]: 64.4% | viability, T/C [26]: 73.6% | viability, T/C [27]: 73% | viability, T/C [28]: 61.5% | viability, T/C [29]: 74.7% | viability, T/C [30]: 56.4% | viability, T/C [31]: 85.7% | viability, T/C [32]: 68.8% | viability, T/C [33]: 71.8% | viability, T/C [34]: 71.5% | viability, T/C [35]: 78.5% | viability, T/C [36]: 66.7%

Nc1ccn(C2OC(CO)C(O)C2(F)F)c(=O)n1 (stereo not drawn) + COC1C(OC(N)=O)C(O)C(Oc2ccc3c(O)c(NC(=O)c4ccc(O)c(CC=C(C)C)c4)c(=O)oc3c2C)OC1(C)C
IC50 (second compound 0.0316 µM): < 0.0316 µM | IC50 (second compound 0.1 µM): < 0.0316 µM | IC50 (second compound 0.316 µM): < 0.0316 µM | IC50 (second compound 1 µM): < 0.0316 µM | IC50 (second compound 3.16 µM): < 0.0316 µM | IC50 (second compound 10 µM): < 0.0316 µM | viability, T/C [1]: 25.5% | viability, T/C [2]: 22.1% | viability, T/C [3]: 18.8% | viability, T/C [4]: 15% | viability, T/C [5]: 14.9% | viability, T/C [6]: 14.1% | viability, T/C [7]: 30.7% | viability, T/C [8]: 18.8% | viability, T/C [9]: 17.8% | viability, T/C [10]: 16.9% | viability, T/C [11]: 16.9% | viability, T/C [12]: 14.5% | viability, T/C [13]: 32.2% | viability, T/C [14]: 22.6% | viability, T/C [15]: 17.7% | viability, T/C [16]: 17.7% | viability, T/C [17]: 16.3% | viability, T/C [18]: 14.6% | viability, T/C [19]: 28.5% | viability, T/C [20]: 23.4% | viability, T/C [21]: 20.2% | viability, T/C [22]: 13.6% | viability, T/C [23]: 18.1% | viability, T/C [24]: 16.5% | viability, T/C [25]: 26.1% | viability, T/C [26]: 25.7% | viability, T/C [27]: 21.7% | viability, T/C [28]: 16.4% | viability, T/C [29]: 16.7% | viability, T/C [30]: 14.9% | viability, T/C [31]: 28.8% | viability, T/C [32]: 23.6% | viability, T/C [33]: 18.6% | viability, T/C [34]: 14.4% | viability, T/C [35]: 16.8% | viability, T/C [36]: 17.9%

CCCS(=O)(=O)Nc1ccc(F)c(C(=O)c2c[nH]c3ncc(-c4ccc(Cl)cc4)cc23)c1F + COC1C(OC(N)=O)C(O)C(Oc2ccc3c(O)c(NC(=O)c4ccc(O)c(CC=C(C)C)c4)c(=O)oc3c2C)OC1(C)C
IC50 (second compound 0.0316 µM): 9.13 µM | IC50 (second compound 0.1 µM): 8.46 µM | IC50 (second compound 0.316 µM): 9.27 µM | IC50 (second compound 1 µM): 8.52 µM | IC50 (second compound 3.16 µM): 9.73 µM | IC50 (second compound 10 µM): 9.94 µM | viability, T/C [1]: 96.1% | viability, T/C [2]: 142% | viability, T/C [3]: 118% | viability, T/C [4]: 111% | viability, T/C [5]: 101% | viability, T/C [6]: 45.4% | viability, T/C [7]: 113% | viability, T/C [8]: 80.5% | viability, T/C [9]: 103% | viability, T/C [10]: 110% | viability, T/C [11]: 134% | viability, T/C [12]: 40.2% | viability, T/C [13]: 73.6% | viability, T/C [14]: 98.8% | viability, T/C [15]: 119% | viability, T/C [16]: 121% | viability, T/C [17]: 125% | viability, T/C [18]: 45.9% | viability, T/C [19]: 116% | viability, T/C [20]: 117% | viability, T/C [21]: 101% | viability, T/C [22]: 131% | viability, T/C [23]: 111% | viability, T/C [24]: 40.1% | viability, T/C [25]: 114% | viability, T/C [26]: 107% | viability, T/C [27]: 120% | viability, T/C [28]: 147% | viability, T/C [29]: 111% | viability, T/C [30]: 48.7% | viability, T/C [31]: 104% | viability, T/C [32]: 97.6% | viability, T/C [33]: 130% | viability, T/C [34]: 129% | viability, T/C [35]: 127% | viability, T/C [36]: 49.6%
